Values of other authors, collected in patent publication US4242298A, “Polysaccharide ester membrane clearing process” (priority 1979, dated 1980).
Read-outs that look alike come from different tables or passages of the source.

Experiments:
[1] = tested on: rat; conditions: oral
[2] = tested on: rat; conditions: inhalation
[3] = tested on: rats; conditions: 2000 ppm, 8 hours
[4] = tested on: rats; conditions: 6 hours
[5] = tested on: rats; conditions: number of hours not given

SMILES | LD50 [1] [mg/kg] | LCLo ([2]; 4H) [ppm] | further results
CCOCCO [2-ethoxyethanol] | 3000 | 4000 | 
CCOCCOC(C)=O [2-ethoxyethyl acetate] | 5100 |  | LCLo ([2]; 8H): 1500 ppm
CC(=O)O [Acetic Acid, reference compound] |  | 1600 | 
O=C1CCCCC1 [Cyclohexanone, reference compound] | 1620 | 2000 | 
CC(=O)CO [acetol] | 2200 |  | lethality on exposure [3]: nonlethal
CCOC(=O)CC(C)=O [ethyl acetoacetate] |  |  | animal's growth, following exposure ([4]; 1129 ppm (calculated)): normal; symptoms on exposure ([4]; 1129 ppm (calculated)): no symptoms
COC(=O)CC(C)=O [methyl acetoacetate] | 3000 |  | lethality on exposure to concentrated vapor [5]: nonlethal; animal's growth, following exposure ([4]; 1370 ppm (calculated)): normal; symptoms on exposure ([4]; 1370 ppm (calculated)): no symptoms
